As a reminder, the IC50 is the midpoint of a concentration-inhibition curve.

The subject of experiment [1] is HCC70 cells. Description: Inhibition of cell proliferation (CyQUANT Direct), HCC70. The note with it: Homo sapiens, HCC70, 72-hour. In kind it is cell-based, human. On the procedure: (§1) HCC70 and MB453 cells are cell lines derived from human triple negative breast cancer COV318 and COV504 cells are cell lines derived from human ovarian cancer. Representative compounds of the invention were tested at different concentrations (from 4 μM to 126.4 pM; 0.5 log serial dilutions) for their ability to inhibit the proliferation of each of these cell lines. Known CDK inhibitors dinaciclib or N-((1S,3R)-3-((5-chloro-4-(1H-indol-3-yl) pyrimidin-2-yl)amino)cyclohexyl)-5-((E)-4-(dimethylamino)but-2-enamido)picolinamide and triptolide were used as positive controls. Cells were seeded at approximately 2,000 cells/well and grown in ATCC-formulated RPMI-1640 Medium (ATCC 30-2001)+10% FBS. The cells were cultured at 37° C. in a humidified chamber in the presence of 5% CO2. Proliferation assays were conducted over a 72-hour time period. CyQUANT® Direct Cell Proliferation Assay (Life Technologies, Chicago, Ill. USA) was used to assess the anti-proliferative effects of the compounds following manufacturer's directions and utilizing the reagents supplied with the CyQUANT® Direct Cell kit.

Experiment [2] has as its system COV318 cells. Description: Inhibition of cell proliferation (CyQUANT Direct), COV318. The note with it: Homo sapiens, COV318, 72-hour. It is filed as cell-based, human. The procedure: as §1
Experiment [3] relates to COV504 cells. Description: Inhibition of cell proliferation (CyQUANT Direct), COV504. The settings on record: Homo sapiens, COV504, 72-hour. In kind it is cell-based, human. On the procedure: as §1
Experiment [4] relates to MB453 cells. Put plainly: Inhibition of cell proliferation (CyQUANT Direct), MB453. The note with it: Homo sapiens, MB453, 72-hour. In kind it is cell-based, human. The procedure: as §1
Experiment [5] deals with CDK2/Cyclin E1 complex (Homo sapiens, UniProt P24941). Description: CDK2 kinase inhibition assay (Caliper/LabChip EZ Reader).
Description: (§2) Compounds described herein were assayed for inhibition of CDK7, CDK9, CDK12, and CDK2 activity at Biortus Biosciences (Jiangyin, Jiangsu Province, P.R. of China) using kinase assays for each CDK developed with a Caliper/LabChip EZ Reader (Perkin Elmer, Waltham, Mass.).
(§3) Furthermore, the CDK9 inhibition assay used CDK9/Cyclin T1 complex (8 nM) and “5-FAM-CDK9tide” peptide substrate (2 μM, synthesized fluorophore-labeled peptide with the following sequence: 5-FAM-GSRTPMY-NH2 (SEQ ID NO:2) where 5-FAM is defined above and NH2 signifies a C-terminal amide) with 10 mM MgCl2 in the buffer composition listed above. The CDK12 inhibition assay used CDK12 (aa686-1082)/Cyclin K complex (50 nM) and “5-FAM-CDK9tide” (2 μM) as defined above, with 2 mM MgCl2 in the buffer composition above. Additionally, the CDK2 inhibition assay used CDK2/Cyclin E1 complex (0.5 nM) and “5-FAM-CDK7tide” (2 μM; defined above) with 2 mM MgCl2 in the buffer composition above.
(§4) The incubation period at 27° C. for each CDK inhibition assay was chosen such that the fraction of phosphorylated peptide product produced in each assay, relative to the total peptide concentration, was approximately 20% (±5%) for the uninhibited kinase (35 min. for CDK7, 35 min. for CDK2, 3 hr. for CDK12, 15 min. for CDK9).
Experiment [6] has as its target CDK7/Cyclin H/MAT1 complex (Homo sapiens, UniProt P50613). Put plainly: CDK7 kinase inhibition assay (Caliper/LabChip EZ Reader).
Description: as §2, §3, §4
The target of experiment [7] is CDK9/Cyclin T1 complex (Homo sapiens, UniProt P50750). Put plainly: CDK9 kinase inhibition assay (Caliper/LabChip EZ Reader).
Chain of CDK9/Cyclin T1 complex (P50750 whole entry, the tested form may be a part): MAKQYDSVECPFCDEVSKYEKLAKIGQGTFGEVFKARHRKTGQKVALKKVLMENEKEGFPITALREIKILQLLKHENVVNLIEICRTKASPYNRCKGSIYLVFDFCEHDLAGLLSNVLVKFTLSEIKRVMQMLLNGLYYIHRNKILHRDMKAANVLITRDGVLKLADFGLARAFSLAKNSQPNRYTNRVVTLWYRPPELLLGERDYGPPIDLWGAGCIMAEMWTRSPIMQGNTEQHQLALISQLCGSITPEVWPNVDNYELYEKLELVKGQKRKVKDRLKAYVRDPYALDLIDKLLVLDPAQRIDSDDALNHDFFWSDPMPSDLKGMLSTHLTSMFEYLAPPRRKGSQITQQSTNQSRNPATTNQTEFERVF
Chain of CDK9/Cyclin T1 complex (O60563 whole entry partner, the tested form may be a part): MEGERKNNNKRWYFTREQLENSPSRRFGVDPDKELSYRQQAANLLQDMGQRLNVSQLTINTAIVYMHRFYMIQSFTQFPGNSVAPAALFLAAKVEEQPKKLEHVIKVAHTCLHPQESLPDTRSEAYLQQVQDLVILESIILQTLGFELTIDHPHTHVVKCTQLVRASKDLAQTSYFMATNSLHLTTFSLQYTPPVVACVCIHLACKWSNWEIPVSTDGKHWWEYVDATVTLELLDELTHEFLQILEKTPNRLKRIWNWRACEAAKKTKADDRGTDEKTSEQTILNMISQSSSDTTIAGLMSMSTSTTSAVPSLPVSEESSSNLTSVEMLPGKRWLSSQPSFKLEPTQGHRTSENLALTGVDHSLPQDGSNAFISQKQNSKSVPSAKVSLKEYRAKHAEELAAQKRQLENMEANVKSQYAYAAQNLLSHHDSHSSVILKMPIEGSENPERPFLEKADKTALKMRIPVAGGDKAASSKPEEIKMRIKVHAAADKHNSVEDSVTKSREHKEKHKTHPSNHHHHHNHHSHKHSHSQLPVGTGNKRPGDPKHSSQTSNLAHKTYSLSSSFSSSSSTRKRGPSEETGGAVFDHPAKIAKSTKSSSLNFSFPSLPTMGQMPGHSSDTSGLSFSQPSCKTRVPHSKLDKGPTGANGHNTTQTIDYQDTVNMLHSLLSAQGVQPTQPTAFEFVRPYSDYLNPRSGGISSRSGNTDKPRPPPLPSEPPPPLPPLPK
The target of experiment [8] is CDK12 (aa686-1082)/Cyclin K complex (Homo sapiens, UniProt Q9NYV4). Description: CDK12 kinase inhibition assay (Caliper/LabChip EZ Reader).
Chain of CDK12 (aa686-1082)/Cyclin K complex (Q9NYV4 686-1082): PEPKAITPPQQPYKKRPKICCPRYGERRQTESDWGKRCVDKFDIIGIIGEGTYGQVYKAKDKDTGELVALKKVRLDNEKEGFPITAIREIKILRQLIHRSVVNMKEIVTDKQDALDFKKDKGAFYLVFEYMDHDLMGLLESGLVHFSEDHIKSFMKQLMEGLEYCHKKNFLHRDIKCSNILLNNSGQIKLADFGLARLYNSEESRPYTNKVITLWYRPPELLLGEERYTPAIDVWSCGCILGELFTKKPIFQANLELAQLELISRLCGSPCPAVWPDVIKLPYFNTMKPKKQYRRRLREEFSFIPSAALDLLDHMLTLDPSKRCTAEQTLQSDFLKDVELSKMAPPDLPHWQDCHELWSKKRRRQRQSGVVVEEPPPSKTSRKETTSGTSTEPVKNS
Chain of CDK12 (aa686-1082)/Cyclin K complex (O75909 whole entry partner, the tested form may be a part): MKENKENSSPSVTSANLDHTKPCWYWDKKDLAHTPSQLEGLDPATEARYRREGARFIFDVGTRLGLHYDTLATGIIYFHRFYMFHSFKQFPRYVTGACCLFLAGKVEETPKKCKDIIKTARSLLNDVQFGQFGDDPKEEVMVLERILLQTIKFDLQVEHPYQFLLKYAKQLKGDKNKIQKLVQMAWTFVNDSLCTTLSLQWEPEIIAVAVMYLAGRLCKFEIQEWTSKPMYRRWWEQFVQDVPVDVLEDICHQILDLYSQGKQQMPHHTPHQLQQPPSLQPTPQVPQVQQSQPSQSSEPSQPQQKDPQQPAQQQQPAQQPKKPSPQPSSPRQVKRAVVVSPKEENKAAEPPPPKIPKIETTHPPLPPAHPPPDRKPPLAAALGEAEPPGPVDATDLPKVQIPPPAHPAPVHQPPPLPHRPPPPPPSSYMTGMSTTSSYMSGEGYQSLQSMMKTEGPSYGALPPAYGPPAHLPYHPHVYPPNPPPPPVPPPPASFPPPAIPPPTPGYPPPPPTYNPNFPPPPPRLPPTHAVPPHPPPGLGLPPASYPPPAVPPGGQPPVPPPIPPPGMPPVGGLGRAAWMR
Description: as §2, §3, §4

A value given as a limit tells only on which side of the number the result lay.

Chain of CDK7/Cyclin H/MAT1 complex (P50613 whole entry): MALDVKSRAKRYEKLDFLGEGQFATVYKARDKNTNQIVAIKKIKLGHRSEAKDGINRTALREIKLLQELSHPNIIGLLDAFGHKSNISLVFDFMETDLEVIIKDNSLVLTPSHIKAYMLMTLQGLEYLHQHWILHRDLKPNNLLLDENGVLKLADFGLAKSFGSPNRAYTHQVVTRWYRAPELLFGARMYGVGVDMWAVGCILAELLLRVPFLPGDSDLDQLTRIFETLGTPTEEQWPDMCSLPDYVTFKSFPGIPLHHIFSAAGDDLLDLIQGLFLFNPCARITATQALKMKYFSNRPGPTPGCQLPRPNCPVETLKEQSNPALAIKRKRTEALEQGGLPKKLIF
Chain of CDK7/Cyclin H/MAT1 complex (P51946 whole entry partner): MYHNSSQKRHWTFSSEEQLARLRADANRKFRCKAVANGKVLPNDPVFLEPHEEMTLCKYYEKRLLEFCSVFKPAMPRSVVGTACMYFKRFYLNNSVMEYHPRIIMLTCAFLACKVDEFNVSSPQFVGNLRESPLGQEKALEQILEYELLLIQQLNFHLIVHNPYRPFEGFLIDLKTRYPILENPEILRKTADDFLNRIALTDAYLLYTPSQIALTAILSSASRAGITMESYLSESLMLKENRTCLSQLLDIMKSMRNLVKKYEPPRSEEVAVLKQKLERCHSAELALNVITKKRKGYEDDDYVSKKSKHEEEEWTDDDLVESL
Chain of CDK7/Cyclin H/MAT1 complex (P51948 whole entry partner): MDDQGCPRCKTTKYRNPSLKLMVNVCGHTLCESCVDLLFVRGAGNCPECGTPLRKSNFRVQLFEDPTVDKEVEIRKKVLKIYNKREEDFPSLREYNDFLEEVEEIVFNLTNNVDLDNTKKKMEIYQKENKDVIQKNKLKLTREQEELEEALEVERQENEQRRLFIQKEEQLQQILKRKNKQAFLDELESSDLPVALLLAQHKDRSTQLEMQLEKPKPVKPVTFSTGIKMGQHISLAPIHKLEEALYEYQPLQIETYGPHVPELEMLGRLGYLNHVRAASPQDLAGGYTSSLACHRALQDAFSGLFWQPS

Turning to `Cc1noc(C)c1-c1ccc2c(-c3nc(N[C@H]4CCCNC4)ncc3C(F)(F)F)n[nH]c2n1` [Compound 118, 4-[6-(3,5-dimethylisoxazol-4-yl)-1H-pyrazolo-[3,4-b]-pyridin-3-yl]-N-[(3S)-3-piperidyl]-5-(trifluoromethyl)pyrimidin-2-amine], the half-inhibitory concentration (IC50) in experiment [1] was less than 0.1 µM; in experiment [2], 0.1 to 0.5 µM; in experiment [3], less than 0.1 µM; in experiment [4], less than 0.1 µM; in experiment [5] it was more than 0.5 µM; in experiment [6], less than 0.03 µM. Moreover, the IC50 in experiment [7] and in experiment [8] was more than 0.5 µM each time.

For `Cc1noc(C)c1-c1ccc2c(-c3nc(N[C@@H]4CNC[C@H](C(=O)N(C)C)C4)ncc3C(F)(F)F)c[nH]c2n1` [Compound 119, (3R,5S)-5-[[4-[6-(3,5-dimethylisoxazol-4-yl)-1H-pyrrolo[2,3-b]pyridin-3-yl]-5-(trifluoromethyl)pyrimidin-2-yl]amino]-N,N-dimethyl-piperidine-3-carboxamide], the IC50 was less than 0.1 µM in experiment [1]; more than 1 µM in experiment [2]; less than 0.1 µM in experiment [3]; less than 0.1 µM in experiment [4]; more than 0.5 µM in experiment [5]; less than 0.03 µM in experiment [6]. Also, the IC50 in experiment [7] and in experiment [8] was more than 0.5 µM in each case.

For `CNC(=O)[C@H]1CNC[C@@H](Nc2ncc(C(F)(F)F)c(-c3c[nH]c4nc(-c5c(C)noc5C)ccc34)n2)C1` [Compound 120], the IC50 is 0.1 to 0.5 µM in experiment [1]; 0.5 to 1 µM in experiment [2]; 0.1 to 0.5 µM in experiment [3]; less than 0.1 µM in experiment [4]; more than 0.5 µM in experiment [5]; less than 0.03 µM in experiment [6]. Besides, the IC50 in experiment [7] and in experiment [8] was more than 0.5 µM in each case.

In the case of `Cc1noc(-c2ccc3c(-c4nc(N[C@H]5CCCNC5)ncc4C(F)(F)F)c[nH]c3c2)n1` [Compound 121, 4-[6-(3-methyl-1,2,4-oxadiazol-5-yl)-1H-indol-3-yl]-N-[(3S)-3-piperidyl]-5 (trifluoromethyl)pyrimidin-2-amine], the IC50 in experiment [1] is 0.1 to 0.5 µM; in experiment [2], 0.1 to 0.5 µM; in experiment [3] it was less than 0.1 µM; in experiment [4], less than 0.1 µM; in experiment [5] it was more than 0.5 µM; in experiment [6], less than 0.03 µM. The 50% inhibitory concentration (IC50) in experiment [7] and in experiment [8] was more than 0.5 µM in each case.

Consider `Cn1nnnc1-c1ccc2c(-c3nc(N[C@H]4CCCNC4)ncc3C(F)(F)F)c[nH]c2c1` [Compound 122, 4-[6-(1-methyltetrazol-5-yl)-1Hindol-3-yl]-N-[(3S)-3-piperidyl]-5-(trifluoromethyl)pyrimidin-2-amine], for which the IC50 was 0.1 to 0.5 µM in experiment [1]; more than 1 µM in experiment [2]; less than 0.1 µM in experiment [3]; less than 0.1 µM in experiment [4]; more than 0.5 µM in experiment [5]; less than 0.03 µM in experiment [6]. The IC50 in experiment [7] and in experiment [8] was more than 0.5 µM throughout.

For `Cc1nnc(-c2ccc3c(-c4nc(N[C@H]5CCCNC5)ncc4C(F)(F)F)c[nH]c3c2)s1` [Compound 123], the IC50 in experiment [1] is 0.1 to 0.5 µM; in experiment [2] it was 0.1 to 0.5 µM; in experiment [3], less than 0.1 µM; in experiment [4] it was less than 0.1 µM; in experiment [5] it was more than 0.5 µM; in experiment [6], less than 0.03 µM. Besides, the IC50 in experiment [7] and in experiment [8] was more than 0.5 µM throughout.

With `Cc1noc(C)c1-c1ccc2c(-c3nc(N[C@H]4CC[C@H](C)NC4)ncc3C(F)(F)F)c[nH]c2n1` [Compound 124, 4-[6-(3,5-dimethylisoxazol-4-yl)-1H-pyrrolo-[2,3-b]-pyridin-3-yl]-N-[(3S,6S)-6-methyl-3-piperidyl]-5-(trifluoromethyl)pyrimidin-2-amine], the half-maximal inhibitory concentration (IC50) in experiment [1] was less than 0.1 µM; in experiment [2], less than 0.1 µM; in experiment [3], less than 0.1 µM; in experiment [4], less than 0.1 µM; in experiment [5], more than 0.5 µM; in experiment [6] it was less than 0.03 µM. In addition, the concentration for half-maximal inhibition (IC50) in experiment [7] and in experiment [8] was more than 0.5 µM in each case.

For the compound `Cc1noc(C)c1-c1ccc2c(-c3nc(N[C@@H]4CC[C@@H](C)NC4)ncc3C(F)(F)F)c[nH]c2n1` [Compound 125, 4-[6-(3,5-dimethylisoxazol-4-yl)-1H-pyrrolo-[2,3-b]-pyridin-3-yl]-N-[(3R,6R)-6-methyl-3-piperidyl]-5-(trifluoromethyl)pyrimidin-2-amine], the IC50 was 0.1 to 0.5 µM in experiment [1]; 0.1 to 0.5 µM in experiment [2]; less than 0.1 µM in experiment [3]; less than 0.1 µM in experiment [4]; more than 0.5 µM in experiment [5]; less than 0.03 µM in experiment [6]. Further, the half-inhibitory concentration (IC50) in experiment [7] and in experiment [8] was more than 0.5 µM each time.

As to `Cn1nncc1-c1ccc2c(-c3nc(N[C@H]4CCCNC4)ncc3C(F)(F)F)c[nH]c2c1` [Compound 126], the IC50 was less than 0.1 µM in experiment [1]; 0.1 to 0.5 µM in experiment [2]; less than 0.1 µM in experiment [3]; less than 0.1 µM in experiment [4]; more than 0.5 µM in experiment [5]; less than 0.03 µM in experiment [6]. Besides, the IC50 in experiment [7] and in experiment [8] was more than 0.5 µM throughout.

Consider `Cc1nscc1-c1ccc2c(-c3nc(N[C@H]4CCCNC4)ncc3C(F)(F)F)c[nH]c2c1` [Compound 128], for which the IC50 was less than 0.1 µM in experiment [1]; 0.1 to 0.5 µM in experiment [2]; less than 0.1 µM in experiment [3]; less than 0.1 µM in experiment [4]; more than 0.5 µM in experiment [5]; less than 0.03 µM in experiment [6]. For the same compound, the IC50 in experiment [7] and in experiment [8] was more than 0.5 µM each time.

In the case of `Cc1nc(-c2ccc3c(-c4nc(N[C@H]5CCCNC5)ncc4C(F)(F)F)c[nH]c3c2)no1` [Compound 129, 4-[6-(5-methyl-1,2,4-oxadiazol-3-yl)-1H-indol-3-yl]-N-[(3S)-3-piperidyl]-5-(trifluoromethyl)pyrimidin-2-amine], the 50% inhibitory concentration (IC50) in experiment [1] was less than 0.1 µM; in experiment [2] it was less than 0.1 µM; in experiment [3], less than 0.1 µM; in experiment [4], less than 0.1 µM; in experiment [5] it was more than 0.5 µM; in experiment [6], less than 0.03 µM. Further, the IC50 in experiment [7] and in experiment [8] was more than 0.5 µM each time.

In the case of `Cc1nsc(-c2ccc3c(-c4nc(N[C@H]5CCCNC5)ncc4C(F)(F)F)c[nH]c3c2)n1` [Compound 130], the IC50 in experiment [1] is 0.1 to 0.5 µM; in experiment [2], 0.1 to 0.5 µM; in experiment [3] it was 0.1 to 0.5 µM; in experiment [4], 0.1 to 0.5 µM; in experiment [5], more than 0.5 µM; in experiment [6], less than 0.03 µM. The IC50 in experiment [7] and in experiment [8] was more than 0.5 µM each time.

For `CO[C@H]1CNC[C@@H](Nc2ncc(C(F)(F)F)c(-c3c[nH]c4cc(-c5c(C)noc5C)ccc34)n2)C1` [Compound 131], the IC50 in experiment [1] is 0.1 to 0.5 µM; in experiment [2], 0.1 to 0.5 µM; in experiment [3], less than 0.1 µM; in experiment [4], less than 0.1 µM; in experiment [5], more than 0.5 µM; in experiment [6], less than 0.03 µM. Also, the IC50 in experiment [7] and in experiment [8] was more than 0.5 µM in each case.

Consider `Cc1nocc1-c1ccc2c(-c3nc(N[C@H]4CCCNC4)ncc3C(F)(F)F)c[nH]c2n1` [Compound 132], for which the 50% inhibitory concentration (IC50) in experiment [1] was less than 0.1 µM; in experiment [2], less than 0.1 µM; in experiment [3], less than 0.1 µM; in experiment [4] it was less than 0.1 µM; in experiment [5], more than 0.5 µM; in experiment [6], less than 0.03 µM. Moreover, the half-inhibitory concentration (IC50) in experiment [7] and in experiment [8] was more than 0.5 µM in each case.

As for `Cc1noc(C)c1-c1ccc2c(-c3nc(N[C@@H]4CNC[C@H](O)C4)ncc3C(F)(F)F)c[nH]c2n1` [Compound 133, (3R,5S)-5-[[4-[6-(3,5-dimethylisoxazol-4-yl)-1H-pyrrolo[2,3-b]pyridin-3-yl]-5-(trifluoromethyl)pyrimidin-2-yl]amino]piperidin-3-ol], the IC50 in experiment [1] is less than 0.1 µM; in experiment [2] it was 0.1 to 0.5 µM; in experiment [3] it was less than 0.1 µM; in experiment [4], less than 0.1 µM; in experiment [5], more than 0.5 µM; in experiment [6] it was less than 0.03 µM. For the same compound, the IC50 in experiment [7] and in experiment [8] was more than 0.5 µM throughout.

For the compound `Cc1noc(C)c1-c1cc2[nH]cc(-c3nc(N[C@H]4CCCNC4)ncc3C(F)(F)F)c2cc1F` [Compound 134, 4-(6-(3,5-dimethylisoxazol-4-yl)-5-fluoro-1H-indol-3-yl)-N—((S)-piperidin-3-yl)-5-(trifluoromethyl)pyrimidin-2-amine], the IC50 in experiment [1] was less than 0.1 µM; in experiment [2], less than 0.1 µM; in experiment [3], less than 0.1 µM; in experiment [4], less than 0.1 µM; in experiment [5] it was more than 0.5 µM; in experiment [6] it was less than 0.03 µM. Besides, the IC50 in experiment [7] and in experiment [8] was more than 0.5 µM each time.

These data come from patent US11311542B2, “Inhibitors of cyclin dependent kinase 7 (CDK7)” (Syros Pharmaceuticals, Inc., priority 2018, dated 2022).
